The text below walks through data of ChEMBL document CHEMBL1201862, “PubChem BioAssay data set” (2004).

Test in all cases: NCI-60 cell line screen, 48 h
Experiment [1] concerns SW-620.
Experiment [2] relates to KM-20L2.
The test system of experiment [3] is MOLT-4.
Experiment [4] deals with OVCAR-8.
The test system of experiment [5] is Malme-3M.
Experiment [6] concerns U-251.
For experiment [7], the system named is SF-295.
The subject of experiment [8] is SN12C.
The subject of experiment [9] is HOP-62.
For experiment [10], the system named is HL-60.
Experiment [11] relates to UO-31.
Experiment [12] deals with SK-OV-3.
Experiment [13] deals with COLO 205.
Experiment [14] has as its system SF-539.
The test system of experiment [15] is M14.
The subject of experiment [16] is HCT-116.
Experiment [17] has as its system IGROV-1.
The test system of experiment [18] is SF-268.
In experiment [19] the test system is HOP-92.
The subject of experiment [20] is SK-MEL-28.

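The compound was tested at five concentrations on cells cultured in 96-well plates, with a 48-hour exposure period. The concentration for 50% growth inhibition is given as GI50.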 Activity calls are given as the source filed them. Cut-off read from the data, not from the text of the source: active = GI50 up to about 1.1 µM and inactive = higher. Where only a bound is given, the exact number is not on record here.

Regarding `Nc1nc(N)c(CCCCc2ccccc2)c(/C=C/c2ccc([N+](=O)[O-])cc2)n1`, the GI50 in [1] is 1.24 µM (inactive); in [2], 2.49 µM (inactive); in [3] it was 1.14 µM (inactive); in experiment [4], 2.59 µM (inactive); in [5], 1.67 µM (inactive); in experiment [6], 2.13 µM (inactive). In addition, the GI50 in experiment [7] was 1.42 µM (inactive); in [8], 2.74 µM (inactive); in [9], 2.77 µM (inactive); in experiment [10] it was 1.35 µM (inactive); in [11] it was 1.91 µM (inactive); in [12] it was 6.67 µM (inactive). Further, the GI50 was 3.39 µM (inactive) in [13]; 2.16 µM (inactive) in experiment [14]; 1.89 µM (inactive) in experiment [15]; 1.16 µM (inactive) in experiment [16]; 2.8 µM (inactive) in experiment [17]; 3.7 µM (inactive) in [18]. Besides, the GI50 in experiment [19] is 0.0182 µM (active); in [20], 3.33 µM (inactive).
Take `CC1=C2CC[C@@]3(C)C(=CCC3O)C2(C)CCC1=O` (some centres not stated): the GI50 in [1], in [2], in experiment [3], in [4], in experiment [5] and in experiment [6] was > 100 µM (inactive) in each case. In addition, the GI50 in [7], in experiment [8], in experiment [9], in [10], in experiment [11] and in [12] was > 100 µM (inactive) in each case. The GI50 in [13], in [14], in experiment [15], in experiment [16], in experiment [17] and in experiment [18] was > 100 µM (inactive) in each case. Further, the GI50 in experiment [19] and in experiment [20] was > 100 µM (inactive) each time.
With `CCOC(=O)C1=C(O)C(=O)c2ccoc2C1=O`, the GI50 in [1], in experiment [2], in experiment [3], in experiment [4], in experiment [5] and in experiment [6] was > 100 µM (inactive) each time. In addition, the GI50 in experiment [7], in experiment [8], in experiment [9], in [10], in experiment [11] and in experiment [12] was > 100 µM (inactive) throughout. Further, the GI50 in experiment [13], in experiment [14], in experiment [15], in experiment [16], in experiment [17] and in [18] was > 100 µM (inactive) each time. Also, the GI50 in experiment [19] and in experiment [20] was > 100 µM (inactive) in each case.
Consider `O=c1c2ccccc2n2cnc3ccc(NCCNCCO)c1c32`, for which the GI50 in experiment [1] is 0.589 µM (active); in [2], 1.41 µM (inactive); in experiment [3], 0.359 µM (active); in experiment [4], 0.855 µM (active); in [5], 2.36 µM (inactive); in experiment [6] it was 2.1 µM (inactive). Further, the GI50 in experiment [7] is 1.83 µM (inactive); in experiment [8], 1.51 µM (inactive); in [9] it was 1.4 µM (inactive); in experiment [10], 2.42 µM (inactive); in [11], 2.87 µM (inactive); in experiment [12], 2.99 µM (inactive). Besides, the GI50 in experiment [13] is 0.834 µM (active); in experiment [14] it was 3.24 µM (inactive); in experiment [15], 2.71 µM (inactive); in [16], 0.798 µM (active); in experiment [17], 1.91 µM (inactive); in experiment [18] it was 1.46 µM (inactive). Besides, the GI50 in [19] is 4.24 µM (inactive); in [20] it was 3.18 µM (inactive).
Turning to `c1ccc(C2SCc3nc4ccccc4n32)cc1` (configuration not stated), the GI50 in experiment [1] is 51.4 µM (inactive); in [2] it was 47.6 µM (inactive); in experiment [3], 28.2 µM (inactive); in [4], 65 µM (inactive); in [5] it was 38.3 µM (inactive); in experiment [6], 58.7 µM (inactive). The GI50 is 23 µM (inactive) in [7]; 46.1 µM (inactive) in experiment [8]; 43.8 µM (inactive) in experiment [9]; 15.6 µM (inactive) in experiment [10]; 24.6 µM (inactive) in [11]; 91.8 µM (inactive) in experiment [12]. In addition, the GI50 is 37.8 µM (inactive) in experiment [13]; 22.5 µM (inactive) in experiment [14]; 84.5 µM (inactive) in [15]; 19.7 µM (inactive) in [16]; 29.2 µM (inactive) in [17]; 37.9 µM (inactive) in experiment [18]. For the same compound, the values for the GI50 in experiment [19] and in [20] were 22.2 µM (inactive) and 40.3 µM (inactive), respectively.
In the case of `COc1ccc(/C=C2\CCC(CN3CCOCC3)C2=O)cc1` (configuration not stated), the GI50 in [1] was 1.79 µM (inactive); in [2], 6.3 µM (inactive); in experiment [3] it was 1.83 µM (inactive); in experiment [4] it was 2.74 µM (inactive); in experiment [5], 3.01 µM (inactive); in experiment [6], 17.3 µM (inactive). For the same compound, the GI50 is 17.2 µM (inactive) in experiment [7]; 3.83 µM (inactive) in [8]; 10.5 µM (inactive) in experiment [9]; 0.762 µM (active) in experiment [10]; 8.45 µM (inactive) in [11]; 16.4 µM (inactive) in experiment [12]. The GI50 in experiment [13] is 2.17 µM (inactive); in experiment [14], 5.92 µM (inactive); in [15], 2.16 µM (inactive); in [16] it was 1.8 µM (inactive); in experiment [17], 4 µM (inactive); in experiment [18], 6.76 µM (inactive). For the same compound, the GI50 in [19] was 2.52 µM (inactive); in experiment [20] it was 3.06 µM (inactive).
Turning to `Clc1ccc(-c2c(C3=NCCN3)nnn2-c2ccccc2)cc1`, the GI50 in experiment [1] is > 100 µM (inactive); in experiment [2], 85.3 µM (inactive); in experiment [3], 80.2 µM (inactive); in [4], > 100 µM (inactive); in [5], > 100 µM (inactive); in [6], > 100 µM (inactive). Also, the GI50 was > 100 µM (inactive) in experiment [7]; > 100 µM (inactive) in experiment [8]; > 100 µM (inactive) in [9]; > 100 µM (inactive) in [10]; 82.4 µM (inactive) in [11]; > 100 µM (inactive) in experiment [12]. Moreover, the GI50 was 40.1 µM (inactive) in experiment [13]; > 100 µM (inactive) in experiment [14]; > 100 µM (inactive) in experiment [15]; 83.4 µM (inactive) in [16]; > 100 µM (inactive) in experiment [17]; > 100 µM (inactive) in [18]. For the same compound, the GI50 in experiment [19] was 92 µM (inactive); in experiment [20] it was > 100 µM (inactive).
Consider `CCC(=O)CCC1=Nc2nnc(CCCCc3nnc4n3C(=O)C(CCC(=O)CC)=N4)n2C1=O`, for which the GI50 in experiment [1], in experiment [2], in experiment [3], in experiment [4], in experiment [5] and in experiment [7] was > 100 µM (inactive) each time. Also, the GI50 in experiment [8], in experiment [9], in [10], in experiment [11], in experiment [12] and in experiment [13] was > 100 µM (inactive) throughout. The GI50 in experiment [14], in experiment [15], in [17], in experiment [18], in experiment [19] and in experiment [20] was > 100 µM (inactive) in each case.
As to `CN(C)CCNC(=O)C1COc2cc(-c3cc(=O)c4ccccc4o3)ccc2O1` (configuration not stated), the GI50 in [1] was 18.2 µM (inactive); in [2], 22 µM (inactive); in [3], 15.7 µM (inactive); in experiment [4], 23.6 µM (inactive); in experiment [5] it was 21.7 µM (inactive); in experiment [6], 20.1 µM (inactive). The GI50 in experiment [7] is 28.4 µM (inactive); in experiment [8] it was 22.4 µM (inactive); in experiment [9], 33 µM (inactive); in experiment [10] it was 23.9 µM (inactive); in [11], 74.3 µM (inactive); in [12], 23.1 µM (inactive). For the same compound, the GI50 is 16.6 µM (inactive) in [13]; 17.3 µM (inactive) in experiment [14]; 18.1 µM (inactive) in experiment [15]; 15.1 µM (inactive) in experiment [16]; 22.2 µM (inactive) in experiment [17]; 23.7 µM (inactive) in [18]. In addition, the figures for the GI50 in experiment [19] and in experiment [20] were > 100 µM (inactive) and 19.5 µM (inactive), respectively.
On to `Cc1ccc(S(=O)(=O)C2=c3nc4ccccc4cc3=C3C(=O)c4ccccc4C(=O)C32)cc1` (configuration not stated), for which the GI50 in experiment [1], in [2], in experiment [3], in experiment [4], in experiment [5] and in experiment [6] was > 100 µM (inactive) each time. Besides, the GI50 in experiment [8] was > 100 µM (inactive); in experiment [9] it was > 100 µM (inactive); in experiment [10], > 100 µM (inactive); in experiment [11], > 100 µM (inactive); in experiment [12] it was 0.394 µM (active); in [13], > 100 µM (inactive). The GI50 in experiment [14], in experiment [15], in experiment [16], in [17], in experiment [18] and in experiment [19] was > 100 µM (inactive) throughout. For the same compound, the GI50 in experiment [20] was > 100 µM (inactive).
